Patent publication US20060167083A1, “Therapeutic methods and compositions involving isoflav-3-ene and isoflavan structures” (priority 2002, published 2006)
Converted amounts (≈) assume the structure as drawn. “And” between values parts separate entries of the source, which are not always exact repeats. Identical values can stand only once.

Assays:
human topo II = target: T1, human topo II (Homo sapiens, UniProt P11388); assay: Topo II-mediated P4 unknotting assay; assay type: biochemical
T1 construct: purchased Topogen (Columbus, Ohio)
T1 sequence (P11388 whole entry): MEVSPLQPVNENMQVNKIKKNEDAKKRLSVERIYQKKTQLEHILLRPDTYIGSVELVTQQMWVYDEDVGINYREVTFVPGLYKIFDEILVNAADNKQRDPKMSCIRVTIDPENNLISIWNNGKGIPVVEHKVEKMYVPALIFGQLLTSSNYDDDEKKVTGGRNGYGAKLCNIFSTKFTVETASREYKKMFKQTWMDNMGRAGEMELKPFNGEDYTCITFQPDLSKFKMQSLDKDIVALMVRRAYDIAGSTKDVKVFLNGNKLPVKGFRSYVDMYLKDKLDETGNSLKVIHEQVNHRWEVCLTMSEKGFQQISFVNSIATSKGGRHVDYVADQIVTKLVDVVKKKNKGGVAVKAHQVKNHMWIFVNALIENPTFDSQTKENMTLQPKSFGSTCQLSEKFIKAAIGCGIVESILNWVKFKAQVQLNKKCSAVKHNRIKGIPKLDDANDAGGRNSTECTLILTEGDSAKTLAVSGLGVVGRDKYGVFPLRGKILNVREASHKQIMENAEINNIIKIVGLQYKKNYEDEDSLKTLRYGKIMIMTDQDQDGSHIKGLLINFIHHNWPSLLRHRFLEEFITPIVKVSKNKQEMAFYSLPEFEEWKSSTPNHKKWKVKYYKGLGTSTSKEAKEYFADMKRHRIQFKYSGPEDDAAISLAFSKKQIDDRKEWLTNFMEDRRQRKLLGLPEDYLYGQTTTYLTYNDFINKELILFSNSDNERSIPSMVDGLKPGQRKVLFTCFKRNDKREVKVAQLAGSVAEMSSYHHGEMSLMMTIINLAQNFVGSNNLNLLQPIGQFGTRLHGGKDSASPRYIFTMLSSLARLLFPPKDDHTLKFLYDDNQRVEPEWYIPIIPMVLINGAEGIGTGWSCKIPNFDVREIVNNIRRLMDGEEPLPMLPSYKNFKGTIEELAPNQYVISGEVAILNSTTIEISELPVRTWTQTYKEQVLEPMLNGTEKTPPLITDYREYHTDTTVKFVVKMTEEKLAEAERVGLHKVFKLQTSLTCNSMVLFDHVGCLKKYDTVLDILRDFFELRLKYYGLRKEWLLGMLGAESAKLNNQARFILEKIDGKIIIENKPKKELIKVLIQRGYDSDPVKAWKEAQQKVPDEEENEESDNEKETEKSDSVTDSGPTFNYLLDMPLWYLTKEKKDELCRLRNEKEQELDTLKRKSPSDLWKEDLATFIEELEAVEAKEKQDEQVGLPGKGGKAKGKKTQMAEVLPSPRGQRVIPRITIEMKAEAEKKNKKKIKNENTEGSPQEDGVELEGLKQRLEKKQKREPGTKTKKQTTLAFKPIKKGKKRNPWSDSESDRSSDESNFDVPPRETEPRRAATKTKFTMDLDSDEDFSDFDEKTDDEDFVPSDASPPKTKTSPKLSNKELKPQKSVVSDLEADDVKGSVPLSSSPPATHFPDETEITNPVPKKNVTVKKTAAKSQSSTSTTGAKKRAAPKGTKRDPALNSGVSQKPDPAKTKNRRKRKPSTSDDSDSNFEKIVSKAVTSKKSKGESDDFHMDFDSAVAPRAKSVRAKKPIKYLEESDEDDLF
Description: FIG. 1 represents an unknotting assay for determining the effect of dehydroequol on topo II catalytic activity. Substrate P4 DNA was incubated with two units of purified topo II in the absence (lane 1) or presence of 100, 80, 60, 40, 20, and 10 μg/ml dehydroequol (lanes 3-8). Lane 2, 10 μg/ml VP-16 (positive control). Topo II activity was determined by converting knotted P4 DNA (K) to the unknotted (U) form.
The stepwise removal of DNA knots (unknotting) requires transient double-strand breakage followed by strand passage and relegation. Type II topoisomerases uniquely catalyse this reaction. […] DNA from a mutant bacteriophage (P4 Virl del1O) is used as a reaction substrate that migrates as a smear (due to the variable number of knots). In the presence of topo II, topological DNA knots are removed, and the reaction product (unknotted DNA) migrates as a single band. Complete inhibition was evident at 100 μg/ml dehydroequol. It was determined from densitometric measurements of the unknotted band that 50% inhibition (IC50) was at about 20 μg/ml dehydroequol.
To determine topoisomerase (topo) II catalytic activity, knotted DNA that had been isolated from the tailless capsids of the bacteriophage P4 Virl del1O was used as the substrate. Reaction mixtures contained 50 mM Tris-HCl, pH 8.0, 120 mM KCl, 10 mM MgCl2, 0.5 mM ATP, and 0.5 mM dithiothreitol. The topo II inhibitor was added prior to the addition of 2 units of human topo II. Reactions (20 μl final volume) were initiated by adding 0.6 μg of knotted DNA and carried out at 37° C. for 30 min. […] For the quantitative determination of topo II activity, photographic negatives were densitometrically scanned. Unknotted DNA, migrating as a single band at the top of the gel, was measured in this manner. The concentration of the inhibitor preventing 50% of the substrate (knotted DNA) from being converted into the reaction product (unknotted DNA) was determined from a standard curve. By averaging three to four such experiments, the IC50 values were determined.

human topo I = target: T2, human topo I (Homo sapiens, UniProt P11387); assay: Topo I-mediated plasmid-nicking assay; assay type: biochemical; settings: 20 and 100 μg/ml
T2 construct: purchased Topogen (Columbus, Ohio)
T2 sequence (P11387 1-765): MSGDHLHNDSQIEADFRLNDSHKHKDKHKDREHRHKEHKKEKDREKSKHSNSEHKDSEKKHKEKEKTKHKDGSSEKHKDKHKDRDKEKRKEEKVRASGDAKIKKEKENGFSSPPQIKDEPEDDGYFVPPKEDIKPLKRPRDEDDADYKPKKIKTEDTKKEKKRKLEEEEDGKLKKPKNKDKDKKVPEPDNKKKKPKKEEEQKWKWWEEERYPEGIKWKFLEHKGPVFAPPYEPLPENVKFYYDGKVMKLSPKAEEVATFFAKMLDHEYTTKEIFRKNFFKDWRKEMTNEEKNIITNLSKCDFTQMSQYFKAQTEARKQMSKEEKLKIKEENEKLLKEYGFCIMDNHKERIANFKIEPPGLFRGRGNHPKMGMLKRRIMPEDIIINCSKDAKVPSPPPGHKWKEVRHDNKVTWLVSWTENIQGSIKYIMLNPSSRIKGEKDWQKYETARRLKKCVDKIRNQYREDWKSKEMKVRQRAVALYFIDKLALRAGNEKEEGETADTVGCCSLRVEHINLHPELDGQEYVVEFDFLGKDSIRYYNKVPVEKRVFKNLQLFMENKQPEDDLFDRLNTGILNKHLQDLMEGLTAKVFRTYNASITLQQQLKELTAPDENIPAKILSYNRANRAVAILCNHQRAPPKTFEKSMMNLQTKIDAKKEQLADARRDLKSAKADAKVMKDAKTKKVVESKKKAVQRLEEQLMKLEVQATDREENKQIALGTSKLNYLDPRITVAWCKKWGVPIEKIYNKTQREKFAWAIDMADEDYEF
Description: Single-strand DNA breakage was determined by converting relaxed (REL) or supercoiled (SC) pUC8 DNA to the nicked form (NIC).
Under the electrophoretic conditions that were used in the experiment shown in FIG. 4, covalently closed circular (supercoiled or relaxed) plasmid DNA migrates on the bottom of the gel. In the presence of a topo I poison that stabilises the cleavable complex, and following denaturation and degradation of the enzyme with proteinase K/SDS, the resulting nicked DNA migrates on the top of the gel.
Topo I poisons enhance topo I-mediated pUC8 DNA cleavage under the reaction conditions provided by the supplier of the enzyme (Topogen, Inc.). Briefly, 20 μl of reaction mixtures contained 10 mM Tris-HCl, pH 7.5, 1 mM EDTA, 100 mM NaCl, 1 μl of the test agent (or solvent), 0.5 μg of pUC8, and 10 units of human topo I (added last). After a 30-min incubation at 37° C., SDS-proteinase K was added, and, following a 30-min incubation at 37° C., samples were extracted with CHCl3-isopropanol and electrophoresed on a 1% agarose gel containing 0.5 μg/ml ethidium bromide. Gels were photographed, and photographic negatives were scanned.

tNOX = target: T3, tNOX (Homo sapiens, UniProt Q16206); assay: tNOX inhibition, 96-well plate assay with HeLa in dithiodipyridine substrate; assay type: cell-based; settings: 10 μm
T3 construct: endogenous in cells; host or cells: HeLa (human cervical carcinoma)
T3 sequence (Q16206 whole entry): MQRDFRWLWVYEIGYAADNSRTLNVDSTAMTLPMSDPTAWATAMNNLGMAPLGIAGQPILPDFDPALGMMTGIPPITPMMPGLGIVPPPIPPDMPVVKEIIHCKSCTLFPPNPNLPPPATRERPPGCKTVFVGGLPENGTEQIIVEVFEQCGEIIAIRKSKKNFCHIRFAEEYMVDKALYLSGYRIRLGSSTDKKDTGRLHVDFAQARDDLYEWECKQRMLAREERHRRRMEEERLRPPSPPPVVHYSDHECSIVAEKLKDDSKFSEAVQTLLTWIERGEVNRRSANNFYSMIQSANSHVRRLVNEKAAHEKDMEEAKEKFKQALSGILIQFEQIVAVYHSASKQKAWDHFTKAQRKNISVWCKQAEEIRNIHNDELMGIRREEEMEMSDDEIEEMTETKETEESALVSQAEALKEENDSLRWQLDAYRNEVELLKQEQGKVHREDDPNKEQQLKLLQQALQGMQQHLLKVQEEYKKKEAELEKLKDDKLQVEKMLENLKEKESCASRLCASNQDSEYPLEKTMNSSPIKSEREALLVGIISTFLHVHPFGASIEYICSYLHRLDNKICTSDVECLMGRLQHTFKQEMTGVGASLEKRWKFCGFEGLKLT
Description: A 96-well plate assay was used containing human cervical carcinoma (HeLa) in a dithiodipyridine substrate.

leukaemic cell line HL60 = assay: Anti-proliferative effect on HL60; assay type: cell-based; settings: Homo sapiens, HL-60
colon cancer line HT29 = assay: Anti-proliferative effect on HT29; assay type: cell-based; settings: Homo sapiens, HT-29
colon cancer line CaCo-2 = assay: Anti-proliferative effect on CaCo-2; assay type: cell-based; settings: Homo sapiens
[1] = tested on: prostate cancer line DU145; assay: Anti-proliferative effect on DU145; assay type: cell-based; settings: Homo sapiens, DU-145
prostate cancer line PC3 = assay: Anti-proliferative effect on PC3; assay type: cell-based; settings: Homo sapiens, PC-3
MMP-2 = assay: Northern blot analysis of MMP-2 mRNA in endothelial cells; assay type: cell-based, human; settings: 10 μg/ml for 18 hours; two experiments; listed as De
Description: Northern blot analysis: HUVEC were plated at 1×10^6 cells per 25 cm^2 flask and grown for 48 hours. Following treatment with DMSO vehicle or De (10 μg/ml final) for 18 hours, total RNA was harvested and purified using TRIZOL reagent (Invitrogen—Life Technologies, Groningen, Netherlands) according to the manufacturer's protocol. Northern blot analysis was performed using 8 μg total RNA transferred onto Hybond-N membranes (Amersham Biosciences, Buckinghamshire, England) and probed with human MMP-2 and GAPDH cDNAs using a Strip-EZ PCR stripAble PCR Probe synthesis and removal Kit (Ambion, Tex., USA).

VCAM-1 = VCAM-1 expression assay on endothelial cells (FACS); assay type: cell-based, human; settings: 10 μg/ml 18 hours prior to stimulation; TNF and IL-1
Description: E selectin and VCAM-1 assays: HUVEC were plated at 5×10^5 cells per 6 well dish. Cells were treated with DMSO vehicle or De (10 μg/ml final) for 18 hours prior to TNFα (1 ng/ml) addition. After 4 or 18 hours, cells were washed with PBS and incubated with antibodies against E selectin (Mab49-1B11) or VCAM-1 (Nab51-10C9) for 30 min. Goat F(ab′)2 fragment mouse-IgG(H+L)-FITC antibody (Immunotech, Marseille, France) was then added for 30 min. The cells were then trypsinised and FACS analysed on a Coulter Epics® XL-MCL (Beckman Coulter). Results are expressed as arbitrary units relating to the mean intensity of FITC fluorescence.

**Q.** Which results are given for `Oc1ccc(C2=Cc3ccc(O)cc3OC2)cc1` [Dehydroequol, 4′,7-dihydroxyisoflav-3-ene]?
**A.** concentration at which complete inhibition of topo II unknotting was evident (human topo II): 100 µg/mL; effect on topo II catalytic activity compared with positive control (human topo II; VP-16 10 μg/ml as positive control): comparable to that of VP-16; IC50 (human topo II; densitometric measurements of the unknotted band, read-out: 50% inhibition (IC50) of topo II unknotting (converted)): ~83.2 µM; topo I-mediated single-strand DNA breakage (nicked DNA) (human topo I): failed to produce nicked DNA; inhibition of tNOX activity (tNOX): inhibit tNOX activity; IC50 (leukaemic cell line HL60): 1.5 µg/mL (≈ 6.24 µM); IC50 (colon cancer line HT29): 15 µg/mL (≈ 62.4 µM); IC50 (colon cancer line CaCo-2): 1 µg/mL (≈ 4.16 µM); IC50 [1]: 3 µg/mL (≈ 12.5 µM); IC50 (prostate cancer line PC3): 2 µg/mL (≈ 8.32 µM); decrease in level of mRNA for MMP-2 (MMP-2): 68.3% and 46.7%; induction of VCAM-1 on the endothelium (VCAM-1): inhibits the induction
